Results on one compound are retold here after patent US20260325465A1, “SHP-1 INHIBITORS FOR TREATING CANCER” (MDX MANAGEMENT LLC, priority 2022, published 2026).

The subject of series [1] is KPC pancreatic ductal adenocarcinoma. The experiment in a line: TME analysis of KPC pancreatic ductal adenocarcinoma with tumor-focal RT. Type of series: in vivo, murine. The following applies: TPI-1 combined RT. The source says: FIGS. 9A-9C depict that the inhibition of SHP-1 by TPI-1 combined with tumor-focal RT reprogram TME of KPC pancreatic ductal adenocarcinoma towards proinflammatory cancer elimination. FIG. 9A depicts treatment scheme and TME analyses on day 5. The table depicts the percentages of various populations within total CD45+ cells. The bar graph depicts the percentages of various populations within total cells.

A short description of series [2]: Study-1: continuous vs intermittent iSHP-1 with TLR agonists, adverse toxicity. The series is classed as in vivo, mice. Conditions: i.p. The method, then: FIGS. 11A-11E depict the impact of continuous or intermittent iShp-1 treatment on the efficacy and adverse toxicity. FIG. 11A depicts the study design. Mice with KPC pancreatic cancer were either continuously treated with TPI-1 (1× per day) or in an intermittent fashion with gapping days between two treatments (intermittent). Three doses, 1, 3 and 10 mg/kg (i.p.), were tested and TLR agonists (CpG plus PolyI:C, each 10 μg, i.p., 1× every 3 day) was given to kickstart inflammatory response. […] Tumor imaging (FIG. 11B) and volume change records (FIG. 11C) indicate similar efficacies of iShp-1 with continuous or intermittent schemes.
Tumor model: Single engraftment of KPC pancreatic adenocarcinoma
Treatments & dosing strategies: i) iSHP-1—TPI-1, 1, 3, and 10 mg/kg; i.p. either 1× per day (continuous), or following an intermittent schedule depicted in FIG. 11. ii) TLR agonists (αTLR)—CpG, PolyI:C, each 10 μg; i.p. every 3 days

A short description of series [3]: Study-2: acute adverse toxicity. The series is classed as in vivo, mice. The following applies: intermittent iSHP-1 therapies. The method, then: FIGS. 12A-12D depict that pulse-intermittent inhibition of SHP-1 (iSHP-1) combined with TLR agonists (αTLR) and/or anti-PD-L1 checkpoint inhibitor effectively treat multi-lesion MC38 colorectal carcinoma. FIG. 12A depicts the treatment scheme. Mice with bilateral MC38 tumors (s.c.) were treated for two days with TPI-1 and various combinations via i.p. or s.c. A 5-day intermittent period was given before the 2nd cycle of treatments to mice that had residue tumors. FIGS. 12B and 12C depict tumor control efficacies measured by tumor volume changes (FIG. 12B) and TME reprogramming, indicating increases in tumor killing immune populations while reduction of immunosuppression. FIG. 12D depicts acute adverse toxicity, measured by body weight, proteinuria, serum ALT level and splenomegaly.

For another series, the system named is KPC pancreatic cancer. The series is described as follows: Study-3: iSHP-1 with RT and αPD-L1, KPC pancreatic cancer. The series is classed as in vivo, mice. Conditions: TPI-1 3 or 5 mg/kg i.p. every 3 days, right flank RT 8Gy-4Gy-2Gy, αPD-L1 100 μg. The method, then:
FIGS. 13A-13E depict pulse-intermittent SHP-1 inhibition (iSHP-1) combination with RT and αPD-L1 treating pancreatic cancer and lung cancer. FIG. 13A depicts experimental schemes. […] Concomitantly, the tumor at the right flank was treated with 8Gy X-ray radiation (RT). After two days of intermittent period, mice on day 4 were treated with the 2nd cycle TPI-1 (i.p.) of the same dose while RT reduced to 4Gy applied to the right flank tumor. The 3rd cycle (day 7) iSHP-1 combination with RT reduced to 2Gy. Anti-PD-L1 Ab (100 μg, i.p.) was given a day following TPI-1 plus RT. FIG. 13B depicts luminescent image tracing KPC-luc and LLC-luc tumor changes post treatment. FIG. 13C depicts record of tumor volume changes and animal survival up to post-treatment 45 days.
Modalities & Dosing Strategy: i) iSHP-1—TPI-1, 3 or 5 mg/kg, i.p., 1× every 3 days. ii) Tumor focal RT: 8Gy-4Gy-2Gy, given to right flank simultaneously with iSHP-1. iii) αPD-L1: 100 μg, i.p., given a day after iSHP-1 plus RT

Series [4] relates to MC38 colorectal carcinoma. The series is described as follows: αTLR-induced inflammation in MC38 tumor-bearing mice with or without TPI-1. Type of series: in vivo, C57BL6 mice. From the text:
FIGS. 17A-17C depict inhibition of SHP-1 (iShp1) abrogates tumor-imposed immune suppression under pro-inflammatory challenges. FIG. 17A depicts neutrophil infiltration in different organs measured at various time point following αTLR challenge. FIG. 17B depicts neutrophil infiltration in tumor tissues in mice treated with αTLR plus TPI-1. FIG. 17C depicts the phenotype of intratumoral macrophages.
MC38 colorectal carcinoma was established (via subcutaneous administration) in syngeneic C57BL6 mice. After tumor sizes reached more than 200 mm^3, the tumor-bearing mice were induced systemic inflammatory condition by TLR agonists (αTLR, CpG/PolyIC/R848, each 25 μg) administrated via subcutaneous administration at the location distal from MC38 tumor. A group of mice were concurrently administrated with TPI-1 (1 mg/kg) via subcutaneous administration to achieve systemic SHP-1 inhibition.

For another series, the system named is KPC pancreatic tumor. The experiment in a line: Cytokines secreted by KPC tumor pieces treated with TLR agonists with or without TPI-1. Set-up: species or system mice. The following applies: TPI-1 0.4 μM with TLR agonists 1 μg/ml, 18 h. The method, then:
KPC pancreatic tumor removed from mice were cut into small pieces and treated with 5 different TLR agonists (R848, 3M-852A, Motolimod, Bropirimine or Vesatolimod; 1 μg/ml each) without or with SHP-1 inhibitor TPI-1 (0.4 μM). After 18 h, cytokines secreted into the culture medium were assayed.

The test system of another series is solid tumors. The series is described as follows: Intermittent period after TPI-1 combined therapy in tumors. The series is classed as in vivo, murine. The following applies: TPI-1 combined with TLR agonists or RT. The source says:
Furthermore, these analyses of the TME immune landscape changes following TPI-1 combined therapies informed our design of the pulse-intermittent SHP-1 inhibition strategy for metastatic solid tumors. […] Along with macrophage reduction, tumor-associated SHP-1 activities also dwindled, a change that ousted the necessity of continuous TPI-1 application. This “intermittent” period lasted 3-6 days, a length dependent on TPI-1 and TLR agonists/RT dosages, as well as tumor type and stage prior to treatment. […] Consistent with these changes, the tumors after the intermittent period were reverted to growth, unless another cycle of TPI-1 combined therapy was applied, which were again effectively suppressing tumors.

Entries after “also recorded” stand apart in the source; their conditions may differ.

For the compound `O=C1C=CC(=O)C(c2cc(Cl)ccc2Cl)=C1` [TPI-1], in series [1], the “CD8 T cell expansion and p15E reactivity” value is reported as “marked expansion of CD8 T cells with significant high frequency of reactivity to tumor-specific antigen p15E”; the intratumoral macrophage phenotype result was “proinflammatory phenotype and increased antigen presentation capacity”. Moreover, in series [1] (day 5), the “immune cell infiltration in TME” value was “induced neutrophil (PMN) infiltration, NK cell increases and CD8 T cell expansion”. In addition, in series [2] (1× per day), the “adverse effects, continuous dosing” value was “incurred acute anemia, proteinuria, splenomegaly and lung inflammation”. Further, the “adverse effects, intermittent dosing” value in series [2] (intermittent) is on record as “did not display or were minor”. In addition, the acute adverse toxicity result in series [3] is recorded as “did not incur acute adverse toxicity”. Also, the “tumor elimination incl. distal lesions” value with KPC pancreatic cancer was “effectively eliminating or repressing KPC pancreatic cancer and LLC lung cancer along with distal lesions”. Further, the “TNFα and IL12 expression of intratumoral macrophages” value in series [4] (TPI-1 1 mg/kg s.c. with αTLR) was “increased TNFα and IL12 expression”. Moreover, the “neutrophil infiltration in tumor” value in series [4] (TPI-1 1 mg/kg s.c. with αTLR (CpG/PolyIC/R848, each 25 μg), 1 mg/kg) is “enabled neutrophil infiltration upon αTLR; also recorded: increased neutrophil infiltration in tumor tissues”. Moreover, the “cytokines secreted, with SHP-1 inhibitor” value with KPC pancreatic tumor is “induced high production of proinflammatory cytokine s while suppressing production of IL-10 and TGFβ”. Further, in the series on solid tumors, the “length of intermittent period with reduced macrophages and tumor growth restraint” value fell in the range of 3 to 6 days.
